# Columns and labels:
# HuM2e antibody 23K12 = assay type: binding, human
# [1] = tested on: anti-M2 human monoclonal antibody Z3G1; assay type: binding
Substance,Signal (peptides that bind to 23K21 and 8I10) (HuM2e antibody 23K12),Signal (peptides that show specific binding to Z3G1) [1],Signal (peptides that bind to Z3G1) [1]
582 (SLLTEVETPIRAEWGCRCNDSSD; epitope peptide) [compound 582],856,2306,
611 (SLLTEVETRIRNEWGCRCNDSSD; epitope peptide) [compound 611],813,2159,
537 (SLLTEVEPPIRNEWGCRCNDSSD; epitope peptide) [compound 537],953,2522,
644 (SLLTEVETPIRNEWGVRCNDSSD; epitope peptide) [compound 644],764,2444,
652 (SLLTEVEEPIRNEWGCRCNDSSD; epitope peptide) [compound 652],757,2362,
349 (SLATEVETPIRNEWGCRCNDSSD; epitope peptide) [compound 349],1583,2145,
527 (SLLTEVEQPIRNEWGCRCNDSSD; epitope peptide) [compound 527],986,2344,
500 (SCLTEVGSLLTEV; epitope peptide) [compound 500],1066,1610,
457 (SLLTEVETPMRNEWGCRCNDSSD; epitope peptide) [compound 457],1281,2297,
697 (SLLTEVETPIRNEWGCRINDSSD; epitope peptide) [compound 697],718,2409,
508 (MSLCTEVGCSLLTEV; epitope peptide) [compound 508],1049,,2832
239 (CSLLTEVETCEVETPIRNEWGSRSNC; epitope peptide) [compound 239],821,2549,
380 (SLLTEVETPIRNTWGCRCNDSSD; epitope peptide) [compound 380],1409,2314,
388 (CSLLTEVGCLLTEV; epitope peptide) [compound 388],1351,2427,
686 (SLLTEVETPIRNEWGCRLNDSSD; epitope peptide) [compound 686],728,2363,
549 (SLLTEVETFIRNEWGCRCNDSSD; epitope peptide) [compound 549],916,2301,
352 (SLQTEVETPIRNEWGCRCNDSSD; epitope peptide) [compound 352],1561,2025,
684 (SLLTEVETPIRNHWGCRCNDSSD; epitope peptide) [compound 684],728,2377,
301 (SLLCEVGCSLLTEC; epitope sequence) [compound 301],1959,2637,
425 (SLLTEVETPIRNEWGCRCNDSKD; epitope peptide) [compound 425],770,,2361
557 (MSCLTEVGCSLLTEV; epitope peptide) [compound 557],899,,2506
607 (SLLTEVESPIRNEWGCRCNDSSD; epitope peptide) [compound 607],817,2156,
432 (SLLTEVETPIRNEWGCRCNDSVD; epitope peptide) [compound 432],728,,2232
353 (SLLTEVGCSLLTEC; epitope peptide) [compound 353],1556,2380,
434 (SLLTEVETPIRNEWGCRCNDSYD; epitope peptide) [compound 434],862,,2479

Substance,Signal (peptides that bind to 23K21 and 8I10) (HuM2e antibody 23K12),Signal (peptides that show specific binding to Z3G1) [1],Signal (peptides that bind to Z3G1) [1]
443 (SLLTEVETPIRNEWGCR; epitope peptide) [compound 443],864,,2444
532 (MSCLTEVGMSLLTEV; epitope peptide) [compound 532],968,,2336
653 (SLLTEVETIIRNEWGCRCNDSSD; epitope peptide) [compound 653],756,2096,
641 (SLLTEVETPIRNELGCRCNDSSD; epitope peptide) [compound 641],765,2436,
213 (CETPIRNEWGSRSNDSCSLLTEVETC; epitope peptide) [compound 213],971,1997,
665 (SLLTEVETPFRNEWGCRCNDSSD; epitope peptide) [compound 665],745,2229,
631 (SLLTEVETPIRKEWGCRCNDSSD; epitope peptide) [compound 631],782,2437,
408 (SLLTEVETPIRNEWGCRCNDISD; epitope peptide) [compound 408],962,,2527
450 (SLLTEVEHPIRNEWGCRCNDSSD; epitope peptide) [compound 450],1331,2241,
320 (SLLTEVGSLLTEV; epitope peptide) [compound 320],1794,2530,
356 (SLLTEVETPIRNEWGCRCNDSDD; epitope peptide) [compound 356],1553,,2181
312 (TLLTEVETPIRNEWGCRCNDSSD; epitope peptide) [compound 312],1855,2510,
417 (SLLTEVETPIRNEWGCRCNDVSD; epitope peptide) [compound 417],772,,2389
682 (SLLTEVETPIRNEWGSRCNDSSD; epitope peptide) [compound 682],729,2346,
621 (SLLTEVEFPIRNEWGCRCNDSSD; epitope peptide) [compound 621],805,2297,
580 (SLCTEVGCSLLTEV; epitope peptide) [compound 580],858,2382,
372 (CSLLTEVGMSCLTEV; epitope peptide) [compound 372],1466,,2554
553 (SLLTEVTTPIRNEWGCRCNDSSD; epitope peptide) [compound 553],909,2102,
576 (SLLTEVETPIFNEWGCRCNDSSD; epitope peptide) [compound 576],862,2176,
410 (SLLTEVETPIRNEWGCRCNDLSD; epitope peptide) [compound 410],769,,2494
628 (SLLTEVETPIRNEWGCRCMDSSD; epitope peptide) [compound 628],786,,2470
440 (SLLTEVETPIRNEW; epitope peptide) [compound 440],750,,2334
339 (MSLLTECGMSLLTEV; epitope peptide) [compound 339],1658,,2170
666 (SLLTEVETPIRNAWGCRCNDSSD; epitope peptide) [compound 666],743,2334,
699 (SLLTEVETPIRNEWGCRYNDSSD; epitope peptide) [compound 699],716,,2169

# From patent publication US8932597B2 (priority 2008, dated 2015)
